Laboratory results reported in patent US20250034135A1, “ANTI-APOPTOTIC PROTEIN BCL-2 INHIBITOR, PHARMACEUTICAL COMPOSITION AND USES THEREOF” (HANGZHOU HEALZEN THERAPEUTICS CO., LTD., priority 2021, published 2025).

What was measured:
BCL2 = BCL2 (Homo sapiens (Human), UniProt P10415); experiment: Molecular level activity test of anti-apoptotic protein BCL2 (HTRF, binding to Bim peptide); details: HTRF, binding of BCL2 to Bim peptide; read-out: BCL2 nM (inhibitory activity, IC50)
Summary of the method: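 Signal comes from proximity of anti-His-labelled BCL2 and streptavidin-XL665-bound biotin-BIM peptide. Test compounds, added in 2% DMSO, were preincubated with protein and peptide for one hour; detection reagents then incubated four hours at room temperature before reading.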

BCL2 (G101V) = BCL2 (G101V) (Homo sapiens (Human), UniProt P10415, G101V); experiment: Molecular level activity test of anti-apoptotic protein BCL2 (G101V) (HTRF, binding to Bim peptide); details: inhibition of BCL2 (G101V) binding to Bim peptide, read-out: BCL-2 (G101V)
Summary of the method: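 His-tagged recombinant BCL2 (G101V) incubated 1 h with biotin-BIM peptide and compound (2% DMSO), then anti-His and streptavidin-XL665 detection reagents added for 4 h at room temperature. HTRF signal reflects compound effect on BCL2–BIM binding.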

RS4; 11 cells = experiment: Tumor proliferation inhibitory activity test (MTS) on RS4; 11; type: cell-based; details: Homo sapiens, RS4-11, 72 h, 3 days incubation
Summary of the method: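 RS4;11 cells were exposed to serially diluted compound (0.2% DMSO control) for 3 days at 37 °C/5% CO2, followed by MTS for 3–4 h. Read-out was OD490−OD690, and inhibition was calculated relative to the DMSO and blank wells.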

BCL-XL = BCL-XL (Homo sapiens (Human), UniProt Q07817); experiment: BCL-XL enzyme molecular level activity test (HTRF, binding to BIM peptide); details: binding of BCL-XL to BIM peptide, values in nM, read-out: BCL-XL inhibitory activity (IC50)
Chain of BCL-XL (Q07817 whole entry): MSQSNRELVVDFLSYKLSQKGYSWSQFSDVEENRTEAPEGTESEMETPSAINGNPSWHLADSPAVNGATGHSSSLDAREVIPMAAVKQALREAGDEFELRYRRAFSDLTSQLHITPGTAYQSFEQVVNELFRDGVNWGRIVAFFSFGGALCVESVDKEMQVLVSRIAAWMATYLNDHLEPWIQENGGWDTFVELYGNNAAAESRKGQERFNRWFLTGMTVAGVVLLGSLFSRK
Summary of the method: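 HTRF binding assay: His-tagged recombinant BCL-XL with biotin-BIM peptide and compound (2% DMSO), 1 h. Anti-His and streptavidin-XL665 detection reagents added, 4 h at room temperature. Excitation 320 nm; 665/615 nm ratio reflects binding, with no-protein background and no-compound full-binding controls.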

human platelets = experiment: Platelet viability test (CTG); type: cell-based; details: CTG after 24 h
Description: After 10 mL of platelet-rich plasma was added to 30 mL of ACD-A solution and uniformly mixed, centrifugation was performed at 1200 g, and the supernatant was discarded; 10 mL of ACD-A solution was added, resuspended, uniformly mixed, and centrifuged at 1200 g for 10 min, and the supernatant was discarded. 5 mL of HEPES-Tyrode's buffer containing 1 μM PGE1 and 0.2 U/mL apyrase was added, slightly inverted, and then centrifuged at 800 g for 5 min, and the supernatant was discarded. 10 mL of HEPES-Tyrode's buffer containing 1 μM PGE1 and 0.2 U/mL apyrase was added, resuspended, and centrifuged at 1000 g for 5 min, and the supernatant was discarded. 2 mL of HEPES-Tyrode's buffer containing 1 μM PGE1+10% FBS-resuspended platelets was added, 200 μL was taken into a centrifuge tube and diluted to 2 mL. Then it was diluted to 1, 0.8, 0.6, 0.4, 0.2, 0.1, 0.08, 0.06, 0.04, 0.02, 0.01 times, the volume was complemented to 100 μL, and 50 μL of CTG reagent was added to detect cell viability. The maximum valid dilution with a fluorescence value not exceeding […] was selected for dilution, 90 μL/well was connected to a 96-well cell plate for chemiluminescence detection. A compound was prepared with HEPES-Tyrode's buffer containing 1 μM of PGE1+10% FBS, and added to the cells, which was gently beaten evenly and detected for cell viability by adding 50 μL CTG after 24 h.

human CYP3A4 enzyme = human CYP3A4 enzyme (Homo sapiens (Human), UniProt P08684); experiment: CYP3A4 enzyme inhibitory activity (Vivid CYP3A4 Green screening kit); details: read-out: CYP3A4 (IC50); Vivid CYP3A4 Green screening kit
Chain of human CYP3A4 enzyme (P08684 whole entry): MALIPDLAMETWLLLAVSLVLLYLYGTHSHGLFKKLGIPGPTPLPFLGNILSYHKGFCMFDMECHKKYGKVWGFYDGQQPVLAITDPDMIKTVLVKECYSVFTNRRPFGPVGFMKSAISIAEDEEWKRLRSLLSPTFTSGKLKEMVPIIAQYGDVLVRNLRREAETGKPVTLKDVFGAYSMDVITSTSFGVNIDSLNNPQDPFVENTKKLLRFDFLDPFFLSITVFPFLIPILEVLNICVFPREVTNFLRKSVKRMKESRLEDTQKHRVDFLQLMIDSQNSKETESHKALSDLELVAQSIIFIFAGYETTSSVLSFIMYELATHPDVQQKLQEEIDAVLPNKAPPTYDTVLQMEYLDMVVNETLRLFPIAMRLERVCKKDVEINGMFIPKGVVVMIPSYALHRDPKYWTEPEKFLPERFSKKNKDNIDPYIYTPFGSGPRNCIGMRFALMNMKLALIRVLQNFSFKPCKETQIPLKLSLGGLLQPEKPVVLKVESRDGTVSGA

BCL2 (D103Y) = BCL2 (D103Y) (Homo sapiens (Human), UniProt P10415, D103Y); experiment: Molecular level activity test of BCL2 (D103Y) (HTRF, binding to Bim peptide); details: read-out: BCL-2 (D103Y) (nM) (inhibitory activity, IC50)
Summary of the method: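 His-tagged recombinant protein mixed with biotinylated BIM peptide and compound (2% DMSO), reacted 1 h. Anti-His and streptavidin-XL665 detection reagents then added and incubated 4 h at room temperature before HTRF read-out of binding inhibition.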

Structure (SMILES) | IC50 (BCL2) [nM] | IC50 (BCL2 (G101V)) [nM] | IC50 (RS4; 11 cells) [nM] | IC50 (BCL-XL) [nM] | IC50 (human platelets) [nM] | IC50 (human CYP3A4 enzyme) [nM] | IC50 (BCL2 (D103Y)) [nM]
COc1ccc(CN2CCN(C3CC4(CCN(c5cc(Oc6cnc7[nH]ccc7c6)c(C(=O)NS(=O)(=O)c6ccc(NCC7CCOCC7)c([N+](=O)[O-])c6)cc5F)CC4)C3)[C@H](c3ccccc3C(C)C)C2)cc1 [compound 239, (R)-2-((1H-pyrrolo[2,3-b]pyrid-5-yl)oxy)-5-fluoro-4-(2-(2-(2-isopropylphenyl)-4-(4-methoxybenzyl)piperazin-1-yl)-7-azaspiro[3.5]non-7-yl)-N-((3-nitro-4-(((tetrahydro-2H-pyran-4-yl)methyl)amino)phenyl)sulfonyl)benzamide] | < 10 | < 10 | < 0.5 | > 500 | > 5000 | > 20000 | –
COc1ccc(CN2CCN(C3CC4(CCN(c5cc(Oc6cnc7[nH]ccc7c6)c(C(=O)NS(=O)(=O)c6ccc(NC[C@H]7COCCO7)c([N+](=O)[O-])c6)cc5F)CC4)C3)[C@H](c3ccccc3C(C)C)C2)cc1 [compound 241, N-((4-((((S)-1,4-dioxan-2-yl)methyl)amino)-3-nitrophenyl)sulfonyl)-2-((1H-pyrrolo[2,3-b]pyrid-5-yl)oxy)-5-fluoro-4-(2-((R)-2-(2-isopropylphenyl)-4-(4-methoxybenzyl)piperazin-1-yl)-7-azaspiro[3.5]non-7-yl)benzamide] | < 10 | < 10 | < 0.5 | > 500 | > 5000 | – | < 10
COc1cc(CN2CCN(C3CC4(CCN(c5cc(Oc6cnc7[nH]ccc7c6)c(C(=O)NS(=O)(=O)c6ccc(NCC7(F)CCOCC7)c([N+](=O)[O-])c6)cc5F)CC4)C3)[C@H](c3ccccc3C(C)C)C2)ccc1CN(C)C [compound 247, (R)-2-((1H-pyrrolo[2,3-b]pyrid-5-yl)oxy)-4-(2-(4-(4-((dimethylamino)methyl)-3-methoxybenzyl)-2-(2-isopropylphenyl)piperazin-1-yl)-7-azaspiro[3.5]non-7-yl)-5-fluoro-N-((4-(((4-fluorotetrahydro-2H-pyran-4-yl)methyl)amino)-3-nitrophenyl)sulfonyl)benzamide] | < 10 | < 10 | 0.5 to 1 | > 500 | > 5000 | – | < 10
COc1ccc(CN2CCN(C3CC4(CCN(c5cc(Oc6cnc7[nH]cc(F)c7c6)c(C(=O)NS(=O)(=O)c6ccc(NCC7(F)CCOCC7)c([N+](=O)[O-])c6)cc5F)CC4)C3)[C@H](c3ccccc3C(C)C)C2)cc1 [compound 252, (R)-5-fluoro-2-((3-fluoro-1H-pyrrolo[2,3-b]pyrid-5-yl)oxy)-N-((4-(((4-fluorotetrahydro-2H-pyran-4-yl)methyl)amino)-3-nitrophenyl)sulfonyl)-4-(2-(2-(2-isopropylphenyl)-4-(4-methoxybenzyl)piperazin-1-yl)-7-azaspiro[3.5]non-7-yl)benzamide] | < 10 | < 10 | 0.5 to 1 | > 500 | > 5000 | – | < 10
COc1ccc(CN2CCN(C3CC4(CCN(c5cc(Oc6cnc7[nH]ccc7c6)c(C(=O)NS(=O)(=O)c6cc([N+](=O)[O-])c(NCC7(F)CCOCC7)c7[nH]cnc67)cn5)CC4)C3)[C@H](c3ccccc3C(C)C)C2)cc1 [compound 268, (R)-4-((1H-pyrrolo[2,3-b]pyrid-5-yl)oxy)-N-((7-(((4-fluorotetrahydro-2H-pyran-4-yl)methyl)amino)-6-nitro-1H-benzo[d]imidazol-4-yl)sulfonyl)-6-(2-(2-(2-isopropylphenyl)-4-(4-methoxybenzyl)piperazin-1-yl)-7-azaspiro[3.5]non-7-yl) nicotinamide] | < 10 | < 10 | < 0.5 | > 500 | – | > 20000 | < 10
